Assay results from patent publication US10000790B2, “Materials and methods for rapid visualization of NAD(P)H” (THE FLORIDA INTERNATIONAL UNIVERSITY BOARD OF TRUSTEES, priority 2015, dated 2018).

Assays:
[1] = system: glucose dehydrogenase (GDH); assay: Inhibition of GDH-driven NADH production read out on the paper-based AuNP device; type: biochemical, Pseudomonas sp.
Experimental: To test the inhibitory effects of Hg(II), different concentrations of Hg(II) was incubated with 0.1 U GDH for 10 min in the presence of 10 mM of glucose and 0.1 M of phosphate buffer solution (pH 7.4) at 25 ° C., then 6 mM of NAD' was added to initiate the enzymatic reaction for […]. The kinetics of the reaction was monitored for the first 6 minutes in a microplate reader to calculate the enzyme's activity. 10 μL of the enzymatic reaction solution were added to 90 μL of 400 μM Au^3+-CTAB solution, and 25 μL of this solution was applied to the device test zone.
The colorimetric results were visualized after 4 minutes and evaluated for the inhibitory effects of these metals by measuring the decrease in the color intensity produced by the enzyme-substrate reaction. Ag(I) and Pb(II) were also tested as potential inhibitors in a similar fashion. Intensity analysis was performed using the ImageJ software.
Clearly, the GDH inhibition and AuNPs dissolution was increased with increasing Hg(II) concentration, with complete dissolution of AuNPs in the testing zone at a Hg(II) ion concentration of 100 μM (FIG. 6B, Hg(II)).
(§1) The resulting solution was then added into a 400 μM of Au^3+-CTAB solution, and 25 μL of this mixture were immediately applied to the testing zone. In the absence of Hg(II), GDH fully converted NAD^+ into NADH after 4 minutes, completely inhibiting AuNP dissolution and leaving the testing zone dark red (FIG. 17A). […] GDH-mediated production of NADH decreased in parallel with the increase of Hg(II) concentration, yielding a lighter readout as increased dissolution of AuNPs occurred (FIG. 17A). […] The color intensity was measured with the ImageJ software and the normalized intensity with different concentrations of Hg(II) was plotted (FIG. 17B). The kinetics of GDH in homogeneous solution was also monitored with or without Hg(II) ions (FIG. 18). Enzyme activity was calculated based on the kinetics of the enzymatic reaction and defined as 100% in the absence of Hg(II).

[2] = target: glucose dehydrogenase (GDH); assay: GDH activity in homogeneous solution, absorbance change at 340 nm; type: biochemical, Pseudomonas sp.; details: Hg(II) 0-200 μM, activity 100% without Hg(II), read-out: IC50 for inhibition of GDH in homogeneous solution
Experimental: The absorbance change at 340 nm was monitored to calculate enzyme activity. Hg(II) concentrations being tested ranged from 0-200 μM. The enzyme's activity was defined as 100% in the absence of the Hg(II) ion, and as the Hg(II) concentration increased the enzyme's activity decreased.
To test the inhibitory effects of Hg(II), different concentrations of Hg(II) was incubated with 0.1 U GDH for 10 min in the presence of 10 mM of glucose and 0.1 M of phosphate buffer solution (pH 7.4) at 25 ° C., then 6 mM of NAD' was added to initiate the enzymatic reaction for […]. The kinetics of the reaction was monitored for the first 6 minutes in a microplate reader to calculate the enzyme's activity. […]
as §1, with “zone.” for “zone. In the absence of Hg(II), GDH fully converted NAD^+ into NADH after 4 minutes, completely inhibiting AuNP dissolution and leaving the testing zone dark red (FIG. 17A).”

[3] = system: GDH; details: reference 43; cited from earlier work

Row | Molecule | enzyme activity ([1]; 2.5 μM of the ion, small decrease of color intensity) | inhibition of AuNPs dissolution ([1]; 20 μM of the ion) | GDH activity ([1]; 20 μM of the ion, light pink color) | inhibition of GDH ([1]; 100 μM of the ion, completely white readout, complete dissolution of AuNPs) | IC50 ([1]; 0.1 U GDH, 0-200 μM Hg(II), 400 μM Au3+-CTAB, 4-min reaction, ImageJ intensity) | IC50 [2] | inhibitory effect on GDH (literature) [3] | activity of GDH ([1]; 20 μM or higher of the ion, completely white readout) | inhibitory effect on GDH ([1]; 20 to 100 μM of the ion, no dissolution of AuNPs observed)
1 | CC(=O)[O-].CC(=O)[O-].[Hg+2] [Hg(II), mercury(II) acetate] | slightly inhibited | approximately 30% | significantly inhibited | complete inhibition | 20 µM | 18 µM | strong inhibitors |  | 
2 | O=[N+]([O-])[O-].[Ag+] [Ag(I), silver nitrate] |  |  |  |  |  |  | strong inhibitors | completely inhibited | 
3 | lead(II) acetate trihydrate [Pb(II)] |  |  |  |  |  |  | no inhibitory effect |  | no inhibitory effect
